According to patent US20230293407A1, “Compositions Comprising (Bio)-Alkanediols with Antimicrobials for Product Protection” (Symrise AG, priority 2020, published 2023):
“And” between values parts separate entries of the source, which are not always exact repeats. Identical values can stand only once. Like-named read-outs stand apart in the source and are kept apart here.

What was measured:
Assay in all cases: preservation efficacy test (PET), European Pharmacopoeia 5.1.3
Assay type in all cases: cell-based
[1] = system: Candida albicans; settings: for germ count CA, 7 days / germ count CA, 14 days / germ count CA, 28 days: o/w emulsion (Table 53); for germ count CA, 14 days / CA germ count, 14 days / number of microorganisms, 14 days: 14 days after inoculation; for germ count CA, 28 days / CA germ count, 28 days / number of microorganisms, 28 days: 28 days after inoculation; for number of microorganisms, 7 days / number of microorganisms, 14 days / number of microorganisms, 28 days / number of microorganisms, 2 days: PET, Candida albicans (CA)
[2] = system: Aspergillus brasiliensis; settings: for number of microorganisms, 2 days / number of microorganisms, 7 days / number of microorganisms, 14 days / number of microorganisms, 28 days: PET, Aspergillus brasiliensis (AB); for number of microorganisms, 2 days: 2 days after inoculation; for number of microorganisms, 7 days: 7 days after inoculation; for number of microorganisms, 14 days: 14 days after inoculation
[3] = system: Staphylococcus aureus; settings: for number of microorganisms, 7 days / number of microorganisms, 14 days / number of microorganisms, 28 days / number of microorganisms, 2 days: PET, Staphylococcus aureus (SA)
[4] = system: Pseudomonas aeruginosa; settings: for germ count PA, 2 days / germ count PA, 7 days / germ count PA, 14 days / germ count PA, 28 days: o/w emulsion (Table 53)
[5] = system: Escherichia coli; settings: for germ count EC, 2 days / EC germ count, 2 days / number of microorganisms, 2 days: 2 days after inoculation; for germ count EC, 2 days / germ count EC, 7 days / germ count EC, 14 days / germ count EC, 28 days: o/w emulsion (Table 53); for number of microorganisms, 2 days / number of microorganisms, 7 days / number of microorganisms, 14 days / number of microorganisms, 28 days: PET, Escherichia coli (EC)
[6] = 7 days after inoculation, substance at given % in test formulation, listed as 0.1% 4-Hydroxyacetophenone
[7] = substance at given % in test formulation, listed as 0.1% 4-Hydroxyacetophenone
[8] = 7 days after inoculation, o/w emulsion (Table 53)
[9] = 14 days after inoculation, o/w emulsion (Table 53)
[10] = 28 days after inoculation, o/w emulsion (Table 53)
[11] = 2 days after inoculation, substance at given % in test formulation
[12] = 7 days after inoculation, substance at given % in test formulation
[13] = substance at given % in test formulation
[14] = 14 days after inoculation, substance at given % in test formulation
[15] = 28 days after inoculation, substance at given % in test formulation

CC(=O)c1ccc(O)cc1 [4-Hydroxyacetophenone, reference compound]
germ count CA, 7 days ([1]; 7 days after inoculation): 170.000 | CA germ count, 7 days [1, 6]: 310.000 | germ count CA, 14 days [1]: 130.000 | CA germ count, 14 days [1, 7]: 190.000 | germ count CA, 28 days [1]: 55.000 | CA germ count, 28 days [1, 7]: 100.000 | number of microorganisms, 7 days ([1]; 7 days after inoculation): 170.000 | number of microorganisms, 14 days [1]: 130.000 | number of microorganisms, 28 days [1]: 55.000 | AB germ count, 28 days ([2]; 28 days after inoculation, substance at given % in test formulation, listed as 0.1% 4-Hydroxyacetophenone): 910.000 | germ count SA, 7 days [3, 8]: 24.000 | SA germ count, 7 days [3, 6]: 78.000 | germ count SA, 14 days [3, 9]: 1 | germ count SA, 28 days [3, 10]: 1 | number of microorganisms, 7 days ([3]; 7 days after inoculation): 24.000 | number of microorganisms, 14 days ([3]; 14 days after inoculation): 1 | number of microorganisms, 28 days ([3]; 28 days after inoculation): 1 | germ count PA, 2 days ([4]; 2 days after inoculation): 1 | germ count PA, 7 days ([4]; 7 days after inoculation): 1 | germ count PA, 14 days ([4]; 14 days after inoculation): 1 | germ count PA, 28 days ([4]; 28 days after inoculation): 1 | number of microorganisms, 2 days ([4]; PET, Pseudomonas aeruginosa (PA), 2 days after inoculation): 1 | number of microorganisms, 7 days ([4]; PET, Pseudomonas aeruginosa (PA), 7 days after inoculation): 1 | number of microorganisms, 14 days ([4]; PET, Pseudomonas aeruginosa (PA), 14 days after inoculation): 1 | number of microorganisms, 28 days ([4]; PET, Pseudomonas aeruginosa (PA), 28 days after inoculation): 1 | germ count EC, 2 days [5]: 110.000 | EC germ count, 2 days [5, 7]: 110.000 | germ count EC, 7 days ([5]; 7 days after inoculation): 290 | EC germ count, 7 days [5, 6]: 36 | germ count EC, 14 days ([5]; 14 days after inoculation): 27 | EC germ count, 14 days ([5]; 14 days after inoculation, substance at given % in test formulation, listed as 0.1% 4-Hydroxyacetophenone): 1 | germ count EC, 28 days ([5]; 28 days after inoculation): 1 | number of microorganisms, 2 days [5]: 110.000 | number of microorganisms, 7 days ([5]; 7 days after inoculation): 290 | number of microorganisms, 14 days ([5]; 14 days after inoculation): 27 | number of microorganisms, 28 days ([5]; 28 days after inoculation): 1

CCCCCCCC(=O)NO [caprylhydroxamic acid, reference compound]
number of microorganisms, 2 days ([1]; 2 days after inoculation): 210.000 | number of microorganisms, 7 days ([1]; 7 days after inoculation): 1 | number of microorganisms, 14 days [1]: 1 | number of microorganisms, 28 days [1]: 1 | number of microorganisms, 2 days [2]: 810.000 | number of microorganisms, 7 days [2]: 68.000 | number of microorganisms, 14 days [2]: 180 | number of microorganisms, 28 days ([2]; 28 days after inoculation): 1 | number of microorganisms, 2 days ([3]; 2 days after inoculation): 1 | number of microorganisms, 7 days ([3]; 7 days after inoculation): 1 | number of microorganisms, 14 days ([3]; 14 days after inoculation): 1 | number of microorganisms, 28 days ([3]; 28 days after inoculation): 1 | number of microorganisms, 2 days [5]: 6.900 | number of microorganisms, 7 days ([5]; 7 days after inoculation): 1 | number of microorganisms, 14 days ([5]; 14 days after inoculation): 1 | number of microorganisms, 28 days ([5]; 28 days after inoculation): 1

CCCCCCCCC(O)CO (stereo not shown) [1,2-decylene glycol, reference compound]
number of microorganisms, 2 days ([1]; 2 days after inoculation): 50.000 | number of microorganisms, 7 days ([1]; 7 days after inoculation): 12.000 | number of microorganisms, 14 days [1]: 4.100 | number of microorganisms, 28 days [1]: 1 | number of microorganisms, 2 days [2]: 600.000 | number of microorganisms, 7 days [2]: 520.000 | number of microorganisms, 14 days [2]: 240.000 | number of microorganisms, 28 days ([2]; 28 days after inoculation): 190.000 | number of microorganisms, 2 days ([3]; 2 days after inoculation): 1 | number of microorganisms, 7 days ([3]; 7 days after inoculation): 1 | number of microorganisms, 14 days ([3]; 14 days after inoculation): 1 | number of microorganisms, 28 days ([3]; 28 days after inoculation): 1 | number of microorganisms, 2 days [5]: 1 | number of microorganisms, 7 days ([5]; 7 days after inoculation): 1 | number of microorganisms, 14 days ([5]; 14 days after inoculation): 1 | number of microorganisms, 28 days ([5]; 28 days after inoculation): 1

CCCCCCC(O)CO (stereo not shown) [1,2-octanediol]
number of microorganisms, 2 days ([1]; 2 days after inoculation): 70.000 | number of microorganisms, 7 days ([1]; 7 days after inoculation): 9.000 | number of microorganisms, 14 days [1]: 1 | number of microorganisms, 28 days [1]: 1 | number of microorganisms, 2 days [2]: 650.000 | number of microorganisms, 7 days [2]: 360.000 | number of microorganisms, 14 days [2]: 250.000 | number of microorganisms, 28 days ([2]; 28 days after inoculation): 67.000 | number of microorganisms, 2 days ([3]; 2 days after inoculation): 1 | number of microorganisms, 7 days ([3]; 7 days after inoculation): 1 | number of microorganisms, 14 days ([3]; 14 days after inoculation): 1 | number of microorganisms, 28 days ([3]; 28 days after inoculation): 1 | number of microorganisms, 2 days [5]: 1 | number of microorganisms, 7 days ([5]; 7 days after inoculation): 1 | number of microorganisms, 14 days ([5]; 14 days after inoculation): 1 | number of microorganisms, 28 days ([5]; 28 days after inoculation): 1

CC(C)=CCC/C(C)=C/CC/C(C)=C/CO [0.3% farnesol]
count at 7 days ([1]; CA, 7 days after inoculation, use concentration in label): 880.000 | count at 2 days ([3]; SA, 2 days after inoculation, use concentration in label): 720.000 | count at 7 days ([3]; SA, 7 days after inoculation, use concentration in label): 52.000 | count at 14 days ([3]; SA, 14 days after inoculation, use concentration in label): 100.000 | count at 28 days ([3]; SA, 28 days after inoculation, use concentration in label): 33.000 | count at 2 days ([4]; PA, 2 days after inoculation, use concentration in label): 460.000 | count at 7 days ([4]; PA, 7 days after inoculation, use concentration in label): 380.000 | count at 14 days ([4]; PA, 14 days after inoculation, use concentration in label): 610.000 | count at 28 days ([4]; PA, 28 days after inoculation, use concentration in label): 65.000 | count at 7 days ([5]; EC, 7 days after inoculation, use concentration in label): 390.000 | count at 14 days ([5]; EC, 14 days after inoculation, use concentration in label): 12.000 | count at 28 days ([5]; EC, 28 days after inoculation, use concentration in label): 1.000

O=c1cccccc1O [Tropolone, reference compound]
number of microorganisms, 2 days ([1]; 2 days after inoculation): 1 | number of microorganisms, 7 days ([1]; 7 days after inoculation): 1 | number of microorganisms, 14 days [1]: 1 | number of microorganisms, 28 days [1]: 1 | number of microorganisms, 2 days [2]: 690.000 | number of microorganisms, 7 days [2]: 26.000 | number of microorganisms, 14 days [2]: 1.400 | number of microorganisms, 28 days ([2]; 28 days after inoculation): 1 | number of microorganisms, 2 days ([3]; 2 days after inoculation): 110.000 | number of microorganisms, 7 days ([3]; 7 days after inoculation): 3.100 | number of microorganisms, 14 days ([3]; 14 days after inoculation): 3.100 | number of microorganisms, 28 days ([3]; 28 days after inoculation): 1 | number of microorganisms, 2 days [5]: 190.000 | number of microorganisms, 7 days ([5]; 7 days after inoculation): 1.100 | number of microorganisms, 14 days ([5]; 14 days after inoculation): 1.100 | number of microorganisms, 28 days ([5]; 28 days after inoculation): 1

CCCCCCC(O)C(C)O (stereo not shown) [0.2% 2,3 Nonanediol]
germ count CA, 7 days ([1]; 7 days after inoculation): 440.000 | germ count CA, 14 days [1]: 160.000 | germ count CA, 28 days [1]: 3.800 | germ count SA, 2 days ([3]; 2 days after inoculation, o/w emulsion (Table 53)): 880 | germ count SA, 7 days [3, 8]: 1 | germ count SA, 14 days [3, 9]: 1 | germ count SA, 28 days [3, 10]: 1 | germ count PA, 2 days ([4]; 2 days after inoculation): 1 | germ count PA, 7 days ([4]; 7 days after inoculation): 1 | germ count PA, 14 days ([4]; 14 days after inoculation): 1 | germ count PA, 28 days ([4]; 28 days after inoculation): 1 | germ count EC, 2 days [5]: 860.000 | germ count EC, 7 days ([5]; 7 days after inoculation): 230.000 | germ count EC, 14 days ([5]; 14 days after inoculation): 760 | germ count EC, 28 days ([5]; 28 days after inoculation): 1

O=C([O-])c1ccccc1.[Na+] [0.1% Sodium Benzoate]
AB germ count, 14 days [2]: 20.000 | AB germ count, 28 days [2]: 4.800 | SA germ count, 2 days [3]: 14.000 and 10 | SA germ count, 7 days [3]: 9.800 and 10 | PA germ count, 28 days [4]: 18.000 and 10

CCCCCCCC(=O)OCC(O)CO (stereo not shown) [0.2% glyceryl caprylate]
CA germ count, 2 days [1, 11]: 12.000 | CA germ count, 7 days [1, 12]: 260 | CA germ count, 14 days [1, 13]: 1 | CA germ count, 28 days [1, 13]: 1 | SA germ count, 2 days [3, 11]: 1 | SA germ count, 7 days [3, 12]: 1 | SA germ count, 14 days [3, 14]: 1 | SA germ count, 28 days [3, 15]: 1 | PA germ count, 2 days [4, 11]: 1 | PA germ count, 7 days [4, 12]: 1 | PA germ count, 14 days [4, 14]: 1 | PA germ count, 28 days [4, 15]: 1 | EC germ count, 2 days [5, 13]: 1 | EC germ count, 7 days [5, 12]: 1 | EC germ count, 14 days [5, 14]: 1 | EC germ count, 28 days [5, 15]: 1
